Values joined by “and” are separate entries in the source; they are usually repeats but may differ in a detail not shown here. Equal entries are not always repeated. Inconclusive results and toxic doses are left out.
Tested on: L1210 leukemia ip in BDF1 mice, survival T/C
Assay: NCI In Vivo Anticancer Drug Screen. Data for tumor model L1210 Leukemia (intraperitoneal) in B6D2F1 (BDF1) mice
Settings: endpoint: mean survival time, higher = longer survival
How it was run: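 Survival endpoint. Drug-treated group vs vehicle group, expressed as T divided by C. Tumor passaged by transplantation.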

[1] = dose: 100.0 mg/kg/injection, schedule: Q01DX001 (ip), vehicle: saline with Tween-80
[2] = dose: 200.0 mg/kg/injection, schedule: Q01DX001 (ip), vehicle: saline with Tween-80
[3] = dose: 400.0 mg/kg/injection, schedule: Q01DX001 (ip), vehicle: saline with Tween-80
[4] = dose: 100.0 mg/kg/injection, schedule: Q04DX003 (ip), vehicle: Klucel (hydroxypropylcellulose) (HPC)
[5] = dose: 200.0 mg/kg/injection, schedule: Q04DX003 (ip), vehicle: Klucel (hydroxypropylcellulose) (HPC)
[6] = dose: 100.0 mg/kg/injection, schedule: Q01DX001 (ip), vehicle: carboxymethylcellulose (CMC)
[7] = dose: 200.0 mg/kg/injection, schedule: Q01DX001 (ip), vehicle: carboxymethylcellulose (CMC)
[8] = dose: 400.0 mg/kg/injection, schedule: Q01DX001 (ip), vehicle: carboxymethylcellulose (CMC)
[9] = dose: 100.0 mg/kg/injection, schedule: Q01DX001 (ip), vehicle: Klucel (hydroxypropylcellulose) (HPC)
[10] = dose: 200.0 mg/kg/injection, schedule: Q01DX001 (ip), vehicle: Klucel (hydroxypropylcellulose) (HPC)
[11] = dose: 400.0 mg/kg/injection, schedule: Q01DX001 (ip), vehicle: Klucel (hydroxypropylcellulose) (HPC)
[12] = dose: 100.0 mg/kg/injection, schedule: Q04DX002 (ip), vehicle: Klucel (hydroxypropylcellulose) (HPC)
[13] = dose: 200.0 mg/kg/injection, schedule: Q04DX002 (ip), vehicle: Klucel (hydroxypropylcellulose) (HPC)
[14] = dose: 400.0 mg/kg/injection, schedule: Q04DX002 (ip), vehicle: Klucel (hydroxypropylcellulose) (HPC)
[15] = dose: 100.0 mg/kg/injection, schedule: Q04DX003 (ip), vehicle: saline
[16] = dose: 200.0 mg/kg/injection, schedule: Q04DX003 (ip), vehicle: saline
[17] = dose: 400.0 mg/kg/injection, schedule: Q04DX003 (ip), vehicle: saline
[18] = dose: 100.0 mg/kg/injection, schedule: Q01DX009 (ip), vehicle: saline
[19] = dose: 200.0 mg/kg/injection, schedule: Q01DX009 (ip), vehicle: saline
[20] = dose: 400.0 mg/kg/injection, schedule: Q01DX009 (ip), vehicle: saline
[21] = dose: 400.0 mg/kg/injection, schedule: Q04DX003 (ip), vehicle: Klucel (hydroxypropylcellulose) (HPC)

With NC(N)=N/N=C/C(O)CO (configuration not stated) the T/C (dose: 15.0 mg/kg/injection, schedule: Q01DX Z (ip), vehicle: methylcellulose (MC)) was 104 % of control, the T/C (dose: 30.0 mg/kg/injection, schedule: Q01DX Z (ip), vehicle: methylcellulose (MC)) was 113 % of control and the T/C (dose: 60.0 mg/kg/injection, schedule: Q01DX Z (oral), vehicle: methylcellulose (MC)) was 117 % of control. For the same molecule, the T/C (dose: 240.0 mg/kg/injection, schedule: Q01DX Z (oral), vehicle: methylcellulose (MC)) was 93 % of control.
With Cc1cc(C)nc(NNc2nc(C)cc(C)n2)n1 the T/C [1] was 105 % of control, the T/C (dose: 100.0 mg/kg/injection, schedule: Q04DX003 (ip), vehicle: saline with Tween-80) was 92 % of control and the T/C [2] was 104 % of control. The T/C (dose: 200.0 mg/kg/injection, schedule: Q04DX003 (ip), vehicle: saline with Tween-80) was 92 % of control, the T/C [3] was 100 % of control and the T/C (dose: 400.0 mg/kg/injection, schedule: Q04DX003 (ip), vehicle: saline with Tween-80) was 100 % of control.
CC1OC(C(Cl)(Cl)Cl)NC1=O (configuration not stated) was tested, and the T/C (dose: 100.0 mg/kg/injection, schedule: Q04DX002 (ip), vehicle: saline) was 89 % of control, the T/C (dose: 200.0 mg/kg/injection, schedule: Q04DX002 (ip), vehicle: saline) was 99 % of control and the T/C (dose: 400.0 mg/kg/injection, schedule: Q04DX002 (ip), vehicle: saline) was 89 % of control.
With Nc1cc2ccccc2c2c1ccc1ccccc12 the T/C (dose: 87.5 mg/kg/injection, schedule: Q04DX003 (ip), vehicle: Klucel (hydroxypropylcellulose) (HPC)) was 91 % of control, the T/C [4] was 97 % of control and the T/C (dose: 175.0 mg/kg/injection, schedule: Q04DX003 (ip), vehicle: Klucel (hydroxypropylcellulose) (HPC)) was 93 % of control. The T/C [5] was 94 % of control and the T/C (dose: 350.0 mg/kg/injection, schedule: Q04DX003 (ip), vehicle: Klucel (hydroxypropylcellulose) (HPC)) was 102 % of control.
For CCCC1(c2ccsc2)NC(=O)NC1=O (configuration not stated), the T/C [6] was 98 % of control, the T/C [7] was 98 % of control and the T/C [8] was 90 % of control.
With NC(=O)CNc1ccccc1C(=O)O the T/C [9] was 93 % of control, the T/C [10] was 96 % of control and the T/C [11] was 93 % of control.
In the case of COc1cc(Cc2c(C=O)[nH]c(=S)[nH]c2=O)cc(OC)c1OC, the T/C [1] was 90 % of control, the T/C [2] was 89 % of control and the T/C [3] was 96 % of control.
For c1ccc2c(CCCCc3nccc4ccccc34)nccc2c1, the T/C [12] was 102 % of control, the T/C [13] was 97 % of control and the T/C [14] was 89 % of control.
O=C(CSCCN1CCCCC1)N1c2ccccc2Sc2ccccc21 was tested, and the T/C (dose: 10.0 mg/kg/injection, schedule: Q01DX009 (ip), vehicle: saline) was 102 % of control, the T/C (dose: 20.0 mg/kg/injection, schedule: Q01DX009 (ip), vehicle: saline) was 100 % of control and the T/C (dose: 40.0 mg/kg/injection, schedule: Q01DX009 (ip), vehicle: saline) was 96 % of control.
In the case of CC(=O)OCC(=O)C1(O)C(C)CC2C3C=C(C)C4=Cc5c(cnn5-c5ccccc5)CC4(C)C3C(O)CC21C (configuration not stated), the T/C (dose: 8.0 mg/kg/injection, schedule: Q01DX001 (sc), vehicle: steriod suspending solution) was 110 % of control, the T/C (dose: 16.0 mg/kg/injection, schedule: Q01DX001 (sc), vehicle: steriod suspending solution) was 105 % of control and the T/C (dose: 32.0 mg/kg/injection, schedule: Q01DX001 (sc), vehicle: steriod suspending solution) was 113 % of control. The T/C (dose: 45.0 mg/kg/injection, schedule: Q01DX001 (sc), vehicle: steriod suspending solution) was 106 % of control, the T/C (dose: 70.0 mg/kg/injection, schedule: Q01DX001 (sc), vehicle: steriod suspending solution) was 89 % of control and the T/C (dose: 105.0 mg/kg/injection, schedule: Q01DX001 (sc), vehicle: steriod suspending solution) was 95 % of control. For the same molecule, the T/C (dose: 160.0 mg/kg/injection, schedule: Q01DX001 (sc), vehicle: steriod suspending solution) was 98 % of control, the T/C (dose: 240.0 mg/kg/injection, schedule: Q01DX001 (sc), vehicle: steriod suspending solution) was 110 % of control and the T/C (dose: 360.0 mg/kg/injection, schedule: Q01DX001 (sc), vehicle: steriod suspending solution) was 93 % of control.
In the case of CSc1ccc(NC(=O)C(F)(F)F)cc1, the T/C (dose: 50.0 mg/kg/injection, schedule: Q01DX001 (ip), vehicle: carboxymethylcellulose (CMC)) was 97 % of control, the T/C [6] was 92 % of control and the T/C [7] was 97 % of control. For the same molecule, the T/C [8] was 95 % of control.
CN1CCCCCC1=O was tested, and the T/C [15] was 100 % of control, the T/C [16] was 111 % of control and the T/C [17] was 101 % of control.
In the case of O=c1[nH]cc(-c2ccccc2)c(=O)[nH]1, the T/C [18] was 98 % of control, the T/C [15] was 95 % of control and the T/C [19] was 104 % of control. The T/C [16] was 95 % of control, the T/C [20] was 104 % of control and the T/C [17] was 101 % of control.
For Cc1cc(=O)[nH]c2c1ccc1[nH]c(=O)cc(C)c12, the T/C [9] was 91 % of control, the T/C [4] was 95 % of control and the T/C [10] was 94 % of control. For the same molecule, the T/C [11] was 91 % of control and the T/C [21] was 86 % of control.
In the case of O=NN(CCF)C(=O)NC1C2CC3CC(C2)CC1C3 (configuration not stated), the T/C (dose: 12.5 mg/kg/injection, schedule: Q01DX001 (ip), vehicle: other) was 114 % of control, the T/C (dose: 25.0 mg/kg/injection, schedule: Q01DX001 (ip), vehicle: other) was 123 % of control and the T/C (dose: 50.0 mg/kg/injection, schedule: Q01DX001 (ip), vehicle: other) was 167 % of control.
With Cc1c(Cl)cccc1NC(=O)c1cccc([N+](=O)[O-])c1 the T/C (dose: 100.0 mg/kg/injection, schedule: Q01DX009 (ip), vehicle: Klucel (hydroxypropylcellulose) (HPC)) was 103 % of control, the T/C [4] was 96 % of control and the T/C (dose: 200.0 mg/kg/injection, schedule: Q01DX009 (ip), vehicle: Klucel (hydroxypropylcellulose) (HPC)) was 95 % of control. The T/C [5] was 93 % of control, the T/C (dose: 400.0 mg/kg/injection, schedule: Q01DX009 (ip), vehicle: Klucel (hydroxypropylcellulose) (HPC)) was 94 % of control and the T/C [21] was 91 % of control.
CCN1C(N)=NC(N)=NC1c1ccccc1 (configuration not stated) was tested, and the T/C (dose: 25.0 mg/kg/injection, schedule: Q01DX001 (ip), vehicle: Klucel (hydroxypropylcellulose) (HPC)) was 103 % of control, the T/C (dose: 50.0 mg/kg/injection, schedule: Q01DX001 (ip), vehicle: Klucel (hydroxypropylcellulose) (HPC)) was 97 % of control and the T/C [9] was 102 % of control and 103 % of control.
In the case of COC(=O)C1CNN=C1C(=O)N1Cc2cc3ccccc3nc2C1 (configuration not stated), the T/C (dose: 10.0 mg/kg/injection, schedule: Q04DX003 (ip), vehicle: saline) was 94 % of control, the T/C (dose: 20.0 mg/kg/injection, schedule: Q04DX003 (ip), vehicle: saline) was 97 % of control and the T/C (dose: 40.0 mg/kg/injection, schedule: Q04DX003 (ip), vehicle: saline) was 91 % of control. The T/C (dose: 80.0 mg/kg/injection, schedule: Q04DX003 (ip), vehicle: saline) was 97 % of control and the T/C (dose: 160.0 mg/kg/injection, schedule: Q04DX003 (ip), vehicle: saline) was 99 % of control.
NC(CSC(c1ccccc1)(c1ccccc1)c1ccc(CO)cc1)C(=O)O (configuration not stated) was tested, and the T/C [20] was 150 % of control and 157 % of control and the T/C (dose: 600.0 mg/kg/injection, schedule: Q01DX009 (ip), vehicle: saline) was 168 % of control.
In the case of CCOC(=O)CC(C)=O.CCOC(=O)CC(C)=O.CCOC(=O)CC(C)=O.[Al], the T/C (dose: 12.5 mg/kg/injection, schedule: Q01DX005 (ip), vehicle: Klucel (hydroxypropylcellulose) (HPC)) was 96 % of control, the T/C (dose: 12.5 mg/kg/injection, schedule: Q01DX009 (ip), vehicle: Klucel (hydroxypropylcellulose) (HPC)) was 104 % of control and the T/C (dose: 25.0 mg/kg/injection, schedule: Q01DX005 (ip), vehicle: Klucel (hydroxypropylcellulose) (HPC)) was 100 % of control. The T/C (dose: 25.0 mg/kg/injection, schedule: Q01DX009 (ip), vehicle: Klucel (hydroxypropylcellulose) (HPC)) was 107 % of control, the T/C (dose: 50.0 mg/kg/injection, schedule: Q01DX005 (ip), vehicle: Klucel (hydroxypropylcellulose) (HPC)) was 93 % of control and the T/C [12] was 100 % of control. The T/C [13] was 93 % of control and the T/C [14] was 107 % of control.
For O=C=Nc1ccc(CCc2ccc(N=C=O)cc2)cc1, the T/C [18] was 88 % of control, the T/C [15] was 93 % of control and the T/C [19] was 87 % of control. The T/C [16] was 102 % of control and the T/C [17] was 106 % of control.

Source: PubChem BioAssay AID248 (DTP/NCI, 2004)
